Measurements: patent US20230303712A1, “METHODS OF TREATING GLIOBLASTOMA” (Ramot at Tel-Aviv University Ltd., priority 2020, published 2023)
“Also recorded” adds a separate entry of the source.

Key:
[1] = test system: murine GB cells (GL261, iAGR53, PNp53, EGFRviii-shP16); experiment: 3D spheroid invasion in Matrigel, murine GB cells co-cultured with murine microglia; format: cell-based
Protocol: Tumor spheroids. Tumor spheroids were prepared from mCherry/iRFP/GFP-labeled patient-derived, human U251 or murine GB cells (GL261, iAGR53, PNp53, EGFRviii-shP16), either alone or co-cultured with unlabeled primary human/murine microglia (4:1 ratio), using our modified hanging-drop method, as we previously described. For assessment of cell invasion, GB spheroids (4,000 cells/sphere) were embedded in Matrigel (Corning), seeded in a 96-well plate, and incubated with complete DMEM or complete DMEM supplemented with SELPi (0.5 µM). […] For FACS analysis, GB spheroids (8,000 cells/sphere) were embedded in Matrigel, seeded in a 12-well plate, and treated with complete DMEM, 0% serum microglia medium or microglia CM for 24-48 h. Cells were then recovered using Cell Recovery Solution (Corning) and further analyzed by FACS.

[2] = test system: primary human microglia; experiment: Phagocytosis assay with fluorescent latex beads; format: cell-based; details: added to rSELP; SELPi 0.5 µM, antibodies 2.5 µg/ml
Protocol: Phagocytosis assay. Primary human/murine microglia were seeded in 96 well plates (1 × 10^5 cells/ml) in microglia medium, microglia medium supplemented with rSELP (1.5 µg/ml for human microglia and 3.5 µg/ml for murine microglia), microglia medium supplemented with rSELP and SELPi (0.5 µM), microglia medium supplemented with rSELP and anti-PSGL-1 neutralizing antibody (2.5 µg/ml), microglia medium 13 supplemented with rSELP and anti-CD44 neutralizing antibody (2.5 µg/ml) or microglia medium supplemented with rSELP and anti-CD24 neutralizing antibody (2.5 µg/ml) for 48 h. The medium was then replaced by fresh microglia medium containing green fluorescence latex beads for 2-6 h and washed with PBS supplemented with Hoechst staining solution for 10 min. For evaluation of murine macrophages phagocytosis abilities, macrophages were seeded in 96 well plates (5 × 10^5 cells/ml), treated with macrophages medium, macrophages medium supplemented with rSELP (3.5 µg/ml), macrophages medium supplemented with rSELP and SELPi (0.5 µM), macrophages medium supplemented with rSELP and anti-PSGL-1 neutralizing antibody (2.5 µg/ml), macrophages medium supplemented with rSELP and anti-CD44 neutralizing antibody (2.5 µg/ml) or macrophages medium supplemented with rSELP and anti-CD24 neutralizing antibody (2.5 µg/ml) for 48 h. […]

[3] = biological target: T1, E-Selectin (Homo sapiens, UniProt P16581); details: cited from earlier work
T1 sequence (P16581 22-610): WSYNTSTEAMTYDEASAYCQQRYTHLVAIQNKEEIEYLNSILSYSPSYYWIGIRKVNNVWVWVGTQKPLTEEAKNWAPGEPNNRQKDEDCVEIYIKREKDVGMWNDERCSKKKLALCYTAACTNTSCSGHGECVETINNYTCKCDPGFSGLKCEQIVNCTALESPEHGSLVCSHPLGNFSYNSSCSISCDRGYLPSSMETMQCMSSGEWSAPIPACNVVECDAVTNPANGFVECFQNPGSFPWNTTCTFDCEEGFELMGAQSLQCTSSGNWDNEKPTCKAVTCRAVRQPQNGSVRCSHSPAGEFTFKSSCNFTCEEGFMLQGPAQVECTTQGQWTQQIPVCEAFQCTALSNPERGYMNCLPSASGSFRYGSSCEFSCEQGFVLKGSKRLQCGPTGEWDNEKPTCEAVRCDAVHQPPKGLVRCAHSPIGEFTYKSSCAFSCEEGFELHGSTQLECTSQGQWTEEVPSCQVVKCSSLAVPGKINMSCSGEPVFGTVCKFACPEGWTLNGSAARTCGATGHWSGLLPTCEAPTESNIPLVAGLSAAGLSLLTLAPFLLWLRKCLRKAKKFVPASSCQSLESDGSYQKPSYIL

[4] = test system: primary human microglia; experiment: Real-time PCR gene expression (ARG1, iNOS, IL-10, TGF-β) in microglia treated with rSELP; format: cell-based; details: added on top of rSELP; SELPi 0.5 µM, antibodies 2.5 µg/ml, 48 h
Protocol: To evaluate microglial expression of IL-10 TGF-β, ARG1 and iNOS by primary human microglia (1 × 10^6 cells), cells were seeded in PLL-coated plates. Twenty-four hours post-seeding cells were treated with: 0% serum DMEM alone, or exposed to rSELP (1.5 µg/ml), or exposed to rSELP and SELPi (0.5 µM), or exposed to rSELP and anti-PSGL-1 neutralizing antibody (2.5 µg/ml), or exposed to rSELP and anti-CD44 neutralizing antibody (2.5 µg/ml), or exposed to rSELP and anti-CD24 neutralizing antibody (2.5 µg/ml) for 48 h.
Real-time PCR. The expression level of target genes was assessed by SYBR green real-time PCR (StepOne plus, Life Technologies) and normalized to GAPDH housekeeping gene. Primers used were: […]

[5] = test system: GL261 GB tumors; experiment: SELPi treatment in murine GL261 GB model; format: in vivo, C57BL/6 mice
Protocol: Tumor volume was evaluated by MRI.
SELPi treatments. KF 38789 (SELPi) is a commercially-available P-Selectin inhibitor manufactured by Tocris BioScience. […] This compound is commonly used for research of immune-related processes such as tumor metastases formation. For the experiment described above, SELPi (0.8 mg/ml) was dissolved in DMSO (0.01%), polyethyleneglycol (93.2 mg/ml), Tween-80 (14.8 mg/ml) and DDW. Mice were injected with 16 mg/kg IV, twice a week, three times a week or QOD as described above. As control (vehicle), mice were injected with DMSO (0.01%), polyethyleneglycol (93.2 mg/ml), Tween-80 (14.8 mg/ml), in DDW at equivalent volume.
MRI imaging. Tumor bearing mice were imaged at the Sackler Cellular & Molecular Imaging Center (SCMIC), Tel Aviv University. Mice were anesthetized by ketamine (150 mg/kg) and xylazine (12 mg/kg) injected IP. T1 with contrast agent (Magnetol, Gd-DTPA, Soreq M.R.C. Israel Radiopharmaceuticals) and T2 weighted images were taken by 4.7T MRI - MRS 4000™ (MR solutions).

COc1ccc(C2CC(c3c(O)cc(C)oc3=O)=NCCS2)c(OC)c1 (stereo not shown) [SELPi, 3-[7-(2,4-Dimethoxyphenyl)-2,3,6,7-tetrahydro-1,4-thiazepin-5-yl]-4-hydroxy-6-methyl-2H-pyran-2-one]
invasion of GB spheroids co-cultured with murine microglia ([1]; mesenchymal, proneural and classical lenti-induced murine GB subtypes): significantly reduced the invasion
3D spheroid invasion, murine GL261 ([1]; murine GL261 GB model): effect of SELPi on GB spheroids was observed
restoration of phagocytic function [2]: restored the phagocytic function
inhibiting effect on E-Selectin [3]: no inhibiting effects
rescue of rSELP effects on ARG1, iNOS, IL-10, TGF-β expression [4]: rescue the effects of rSELP; also recorded: rescued rSELP effects
tumor volume (MRI) ([5]; GL261, SELPi IV 16 mg/kg three times a week, 16 mg/kg): significant reduction in tumor volume; also recorded: reduced tumor growth
CD4+ and CD8+ T cells in tumors ([5]; GL261 tumors): increase
CD4+/FOXP3+ T cells in tumors ([5]; GL261 tumors): decrease
blood vessel density (CD31 immunostaining) ([5]; GL261 tumors): clear reduction
proliferation (Ki-67 immunostaining) ([5]; GL261 tumors): clear reduction
